Several values for one entry are separate records, joined by “and”; a condition that tells them apart may be missing. Equal entries are not always repeated. Toxic doses and inconclusive results are not listed.
System: P388 leukemia ip, CD2F1 mice, survival T/C
Experiment: NCI In Vivo Anticancer Drug Screen. Data for tumor model P388 Leukemia (intraperitoneal) in CD2F1 (CDF1) mice
Settings: endpoint: median survival time, higher = longer survival
Summary of the method: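 Mice carrying the transplanted tumor received test compound or vehicle. Survival was recorded in each group, and the value is the treated-group measurement divided by that of the vehicle-treated control group.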

[1] = dose: 240.0 mg/kg/injection, schedule: Q01DX005 (ip), vehicle: saline with Tween-80
[2] = dose: 6.25 mg/kg/injection, schedule: Q01DX009 (ip), vehicle: saline with Tween-80
[3] = dose: 12.5 mg/kg/injection, schedule: Q01DX009 (ip), vehicle: saline with Tween-80
[4] = dose: 60.0 mg/kg/injection, schedule: Q01DX005 (ip), vehicle: Klucel + Tween-80
[5] = dose: 120.0 mg/kg/injection, schedule: Q01DX005 (ip), vehicle: Klucel + Tween-80
[6] = dose: 240.0 mg/kg/injection, schedule: Q01DX005 (ip), vehicle: Klucel + Tween-80
[7] = dose: 60.0 mg/kg/injection, schedule: Q01DX005 (ip), vehicle: saline with Tween-80
[8] = dose: 120.0 mg/kg/injection, schedule: Q01DX005 (ip), vehicle: saline with Tween-80
[9] = dose: 50.0 mg/kg/injection, schedule: Q01DX005 (ip), vehicle: saline with Tween-80
[10] = dose: 100.0 mg/kg/injection, schedule: Q01DX009 (ip), vehicle: saline
[11] = dose: 50.0 mg/kg/injection, schedule: Q01DX009 (ip), vehicle: saline with Tween-80
[12] = dose: 100.0 mg/kg/injection, schedule: Q01DX009 (ip), vehicle: saline with Tween-80
[13] = dose: 25.0 mg/kg/injection, schedule: Q01DX009 (ip), vehicle: saline with Tween-80

CCC(C)C1NC(=O)C(NC(=O)c2c3nc4c(C(=O)NC5C(=O)NC(C(C)CC)C(=O)N6CCCC6C(=O)N(C)CC(=O)N(C)C(C(C)C)C(=O)OC5C)cc([N+](=O)[O-])c(C)c4oc-3c(C)c(=O)c2N)C(C)OC(=O)C(C(C)C)N(C)C(=O)CN(C)C(=O)C2CCCN2C1=O (stereo unspecified)
T/C (dose: 0.2 mg/kg/injection, schedule: Q01DX009 (ip), vehicle: Klucel (hydroxypropylcellulose) (HPC)): 168 % of control
T/C (dose: 0.4 mg/kg/injection, schedule: Q01DX009 (ip), vehicle: Klucel (hydroxypropylcellulose) (HPC)): 228 % of control
T/C (dose: 0.4 mg/kg/injection, schedule: Q01DX009 (ip), vehicle: water): 169 % of control
T/C (dose: 0.6 mg/kg/injection, schedule: Q01DX009 (ip), vehicle: water): 193 % of control
T/C (dose: 0.8 mg/kg/injection, schedule: Q01DX009 (ip), vehicle: Klucel (hydroxypropylcellulose) (HPC)): 92 % of control

COc1cc2cc3cc(-c4ccc(Cl)cc4)c(N4CCCCC4)nc3nc2cc1OC
T/C (dose: 3.75 mg/kg/injection, schedule: Q01DX005 (ip), vehicle: saline with Tween-80): 92 % of control
T/C (dose: 7.5 mg/kg/injection, schedule: Q01DX005 (ip), vehicle: saline with Tween-80): 87 % of control
T/C (dose: 30.0 mg/kg/injection, schedule: Q01DX005 (ip), vehicle: saline with Tween-80): 86 % of control
T/C [1]: 91 % of control

C/C(=N\NC(=S)N1CCC1)c1ccccn1
T/C (dose: 1.56 mg/kg/injection, schedule: Q01DX005 (ip), vehicle: other): 99 % of control
T/C (dose: 3.12 mg/kg/injection, schedule: Q01DX005 (ip), vehicle: other): 103 % of control
T/C (dose: 6.25 mg/kg/injection, schedule: Q01DX005 (ip), vehicle: other): 99 % of control
T/C [2]: 95 % of control
T/C (dose: 12.5 mg/kg/injection, schedule: Q01DX005 (ip), vehicle: other): 94 % of control
T/C [3]: 99 % of control
T/C (dose: 25.0 mg/kg/injection, schedule: Q01DX005 (ip), vehicle: other): 100 % of control

c1ccc2c(c1)Cc1c(-c3noc4c3Cc3ccccc3-4)noc1-2
T/C [4]: 100 % of control
T/C [5]: 90 % of control
T/C [6]: 91 % of control

CCC1(c2ccccc2)C(C#N)C(=O)NC(=O)C1C#N (stereo unspecified)
T/C [7]: 106 % of control
T/C [8]: 99 % of control
T/C [1]: 101 % of control

N#CCCCOCCCOCCCOCCCOCCCOCCCC#N
T/C (dose: 8.75 mg/kg/injection, schedule: Q01DX005 (ip), vehicle: saline with Tween-80): 102 % of control
T/C (dose: 17.5 mg/kg/injection, schedule: Q01DX005 (ip), vehicle: saline with Tween-80): 100 % of control
T/C (dose: 35.0 mg/kg/injection, schedule: Q01DX005 (ip), vehicle: saline with Tween-80): 100 % of control
T/C [9]: 121 % of control
T/C (dose: 70.0 mg/kg/injection, schedule: Q01DX005 (ip), vehicle: saline with Tween-80): 108 % of control
T/C (dose: 200.0 mg/kg/injection, schedule: Q01DX005 (ip), vehicle: saline with Tween-80): 110 % of control

COc1cc2c(cc1OC)C(CC1CCN3CCCCC3C1)NCC2 (stereo unspecified)
T/C (dose: 87.5 mg/kg/injection, schedule: Q04DX003 (ip), vehicle: saline): 103 % of control

COc1ccc(Cc2cc(N=O)c(OC)cc2O)cc1
T/C [9]: 90 % of control
T/C (dose: 100.0 mg/kg/injection, schedule: Q01DX005 (ip), vehicle: saline with Tween-80): 87 % of control

Cn1c(-c2ccccc2)c(COC(=O)NC2CCCCC2)c(COC(=O)NC2CCCCC2)c1-c1ccc(Cl)cc1
T/C (dose: 3.13 mg/kg/injection, schedule: Q01DX009 (ip), vehicle: distilled water + Tween-80): 109 % of control
T/C (dose: 6.25 mg/kg/injection, schedule: Q01DX009 (ip), vehicle: distilled water + Tween-80): 105 % of control
T/C (dose: 50.0 mg/kg/injection, schedule: Q01DX009 (ip), vehicle: distilled water + Tween-80): 178 % of control
T/C (dose: 75.0 mg/kg/injection, schedule: Q01DX009 (ip), vehicle: distilled water + Tween-80): 175 % of control

CCC#CC(=O)OCC
T/C [7]: 113 % of control
T/C [8]: 102 % of control
T/C [1]: 121 % of control

N#CC(C#N)=C/C=C/c1cccc([N+](=O)[O-])c1
T/C (dose: 3.12 mg/kg/injection, schedule: Q01DX009 (ip), vehicle: Klucel (hydroxypropylcellulose) (HPC)): 114 % of control
T/C (dose: 6.25 mg/kg/injection, schedule: Q01DX009 (ip), vehicle: Klucel (hydroxypropylcellulose) (HPC)): 123 % of control
T/C (dose: 8.2 mg/kg/injection, schedule: Q01DX009 (ip), vehicle: Klucel (hydroxypropylcellulose) (HPC)): 118 % of control
T/C (dose: 25.0 mg/kg/injection, schedule: Q01DX009 (ip), vehicle: Klucel (hydroxypropylcellulose) (HPC)): 100 % of control

CCC(CC)c1ccccn1
T/C [10]: 101 % of control
T/C (dose: 100.0 mg/kg/injection, schedule: Q04DX003 (ip), vehicle: saline): 122 % of control
T/C (dose: 200.0 mg/kg/injection, schedule: Q01DX009 (ip), vehicle: saline): 105 % of control

O=C(C[N+](=O)[O-])c1ccc(Cl)cc1
T/C [11]: 87 % of control
T/C [12]: 91 % of control

CCCCOCN(COCCCC)c1ccc(C)cc1
T/C [3]: 88 % of control
T/C [13]: 104 % of control
T/C [11]: 112 % of control

CCc1ccc(C(=O)O)cc1S(=O)(=O)Cl
T/C (dose: 12.5 mg/kg/injection, schedule: Q01DX009 (ip), vehicle: saline sonified): 95 % of control
T/C (dose: 25.0 mg/kg/injection, schedule: Q01DX009 (ip), vehicle: saline sonified): 86 % of control
T/C (dose: 50.0 mg/kg/injection, schedule: Q01DX009 (ip), vehicle: saline sonified): 95 % of control

O=[N+]([O-])c1ccc(-c2noc(-c3cccs3)n2)cc1
T/C (dose: 60.0 mg/kg/injection, schedule: Q01DX005 (ip), vehicle: Klucel (hydroxypropylcellulose) (HPC)): 95 % of control
T/C (dose: 120.0 mg/kg/injection, schedule: Q01DX005 (ip), vehicle: Klucel (hydroxypropylcellulose) (HPC)): 101 % of control
T/C (dose: 240.0 mg/kg/injection, schedule: Q01DX005 (ip), vehicle: Klucel (hydroxypropylcellulose) (HPC)): 97 % of control

Nc1nc(N)c2cc(S(=O)(=O)c3cccc(C(F)(F)F)c3)ccc2n1
T/C [11]: 113 % of control
T/C [12]: 117 % of control
T/C (dose: 200.0 mg/kg/injection, schedule: Q01DX009 (ip), vehicle: saline with Tween-80): 106 % of control

O=[N+]([O-])c1cc(I)c(O)c(/C=N/NS(=O)(=O)c2ccc(F)cc2)c1
T/C [7]: 104 % of control
T/C [8]: 105 % of control
T/C [1]: 101 % of control

Cc1ccc(S(=O)(=O)NC(=O)c2cnc(N(C)C)s2)cc1
T/C (dose: 50.0 mg/kg/injection, schedule: Q01DX005 (ip), vehicle: Klucel (hydroxypropylcellulose) (HPC)): 104 % of control
T/C (dose: 100.0 mg/kg/injection, schedule: Q01DX005 (ip), vehicle: Klucel (hydroxypropylcellulose) (HPC)): 101 % of control
T/C (dose: 200.0 mg/kg/injection, schedule: Q01DX005 (ip), vehicle: Klucel (hydroxypropylcellulose) (HPC)): 107 % of control

OCC(O)C1OC(c2ccccc2)OC2COC(c3ccccc3)OC21 (stereo unspecified)
T/C (dose: 100.0 mg/kg/injection, schedule: Q04DX002 (ip), vehicle: saline with Tween-80): 97 % of control
T/C (dose: 200.0 mg/kg/injection, schedule: Q04DX002 (ip), vehicle: saline with Tween-80): 86 % of control
T/C (dose: 400.0 mg/kg/injection, schedule: Q04DX002 (ip), vehicle: saline with Tween-80): 89 % of control

C(=C\CN1CCOCC1)/Cc1cccnc1
T/C (dose: 3.12 mg/kg/injection, schedule: Q01DX009 (ip), vehicle: saline with Tween-80): 99 % of control and 100 % of control
T/C [2]: 100 % of control
T/C [3]: 100 % of control and 104 % of control
T/C [13]: 100 % of control (2×) and 102 % of control
T/C [11]: 103 % of control and 109 % of control

C[N+](C)(N)Cc1nc(-c2ccc(Cl)cc2)no1
T/C (dose: 50.0 mg/kg/injection, schedule: Q01DX009 (ip), vehicle: saline): 98 % of control
T/C [10]: 93 % of control

CC1CCC2(CC1)CC(=O)N(N1CCOCC1)C(=O)C2
T/C (dose: 60.0 mg/kg/injection, schedule: Q01DX005 (ip), vehicle: suspension in saline): 99 % of control
T/C (dose: 120.0 mg/kg/injection, schedule: Q01DX005 (ip), vehicle: suspension in saline): 99 % of control
T/C (dose: 240.0 mg/kg/injection, schedule: Q01DX005 (ip), vehicle: suspension in saline): 102 % of control

CCOC(=O)CC(N)/C(C)=N\O (stereo unspecified)
T/C [4]: 104 % of control
T/C [5]: 100 % of control
T/C [6]: 100 % of control
